Laboratory results reported in patent US8877261B2, “Anti-redness active agent and cosmetic compositions comprising same” (Laboratoires Expanscience, priority 2011, dated 2014).
Marks after values point to notes of the source that are not given here.

How the values were obtained:
interleukin-8 (IL8) = assay: Release of IL8 by keratinocytes induced by PMA (ELISA); format: cell-based, human; conditions: dexamethasone 10^−7 M, ARG 0.2% + LUP 0.02%
Procedure: Human keratinocytes (NCTC 2544 cell line) were preincubated for 24 hours with the arabinogalactan (ARG)/lupin peptides (LUP) active agents at concentrations of 0.2%/0.02% or with the reference molecule, dexamethasone.
Inflammation was then induced by treatment with PMA for 24 hours, always in the presence of the active agents or the reference molecule.
At the end of incubation, the quantities of interleukin-8 (IL8) present in the culture supernatants were measured by ELISA.
The significance of the results was verified by a single-factor analysis of variance followed by a Tukey's test.
The percentage of inhibition is calculated according to the following formula: [(stimulated PMA)−(active treatment)/(stimulated PMA)]*100 Results (Table 10)

MMP9 = assay: Gene expression of MMP9 in keratinocytes induced by PMA (real-time PCR); format: cell-based, human; conditions: NHEK, total 40 hours
Procedure: The effect of the active agents was sought in a basal condition (to study MMP2) or in a preventive manner on a cell layer having been subjected to inflammatory stress induced by PMA (for MMP9).
Normal human epidermal keratinocytes (NHEK) were preincubated for 24 hours in the presence of the arabinogalactan (ARG)/lupin peptides (LUP) active agents at concentrations of 0.2%/0.02%. PMA was then added for a total treatment period of 40 hours.
At the end of the treatment, the culture supernatants were removed and total RNA was extracted, analyzed and assayed. The neo-synthesized cDNA relating to the genes of interest (MMP2, MMP9) or to the reference genes were amplified selectively by iQ5 real-time PCR (Biorad) using SybrGreen technology.
(§1) By calculating ΔCt (Ctgene of interest−Ctreference gene) and ΔΔCt (ΔCtcontrol−ΔCttreated) the relative quantity of the gene of interest was measured: RQ=(1+E)^ΔΔCt; when E (effectiveness) is equal to 1, then RQ=2^ΔΔCt.
The significance of the results was verified for the ΔCt values by a single-factor analysis of variance followed by a Dunnett's test (for MMP2) or a Tukey's test (for MMP9).
The percentage of inhibition is thus calculated for MMP9: [(RQ(PMA stimulated)−RQ(active treatment))/RQ(PMA stimulated)]*100 Results

kallikrein-5 (KLK5) = assay: Gene expression of kallikrein-5 (KLK5) induced by calcitriol in keratinocytes (real-time PCR); format: cell-based, human
Procedure: (§2) Normal human epidermal keratinocytes (NHEK) were cultured in differentiation culture medium supplemented with Ca^++. […] At the end of the treatment, the culture supernatants were removed and total RNA was extracted, analyzed and assayed. The neo-synthesized cDNA relating to the genes of interest (LL37 and KLK5) or to the reference genes were amplified selectively by iQ5 real-time PCR (Biorad) using SybrGreen technology. […] By calculating ΔCt (Ctgene of interest−Ctreference gene) and ΔΔCt (ΔCtcontrol−ΔCttreated) the relative quantity of the gene of interest was measured: […] The significance of the results was verified for the ΔCt values by a single-factor analysis of variance followed by a Tukey's test. The percentage of inhibition of the expression of LL37 and KLK5 is thus calculated: [(RQ(stim calcitriol)−RQ(active treatment))/RQ(stim calcitriol)]*100 Results

cathelicidin (LL37) = assay: Gene expression of cathelicidin (LL37) induced by calcitriol in keratinocytes (real-time PCR); format: cell-based, human; conditions: for Mean ΔCt (CtLL37 − CtGAPDH) / LL37 expression (relative quantity) / ΔΔCt (LL37) / Percentage of inhibition (LL37 expression): NHEK, 24 hours, ARG 0.2%, LUP 0.02%; for Mean ΔCt (CtLL37 − CtGAPDH) / LL37 expression (relative quantity) / ΔΔCt (LL37): with calcitriol; for Mean ΔCt (CtLL37 − CtGAPDH): alone or in combination; for LL37 expression (relative quantity): control cells = 1.00; for ΔΔCt (LL37): ΔCtcontrol−ΔCttreated; for Percentage of inhibition (LL37 expression): versus calcitriol stimulated control
Procedure: as §2

[1] = test system: Normal human dermal microvascular endothelial cells; assay: Proliferation of endothelial cells in the presence of VEGF (PNPP viability); format: cell-based; conditions: for T24 h - %/control (without VEGF) T0 / Percentage of inhibition 24 h (proliferation induced by VEGF): 24 hours; for T24 h - %/control (without VEGF) T0 / T48 h - %/control (without VEGF) T0: in the presence of VEGF, PNPP signal, mean±standard deviation; for T24 h - %/control (without VEGF) T0 / T48 h - %/control (without VEGF) T0 / Percentage of inhibition 24 h (proliferation induced by VEGF) / Percentage of inhibition 48 h (proliferation induced by VEGF): ARG 0.2%, LUP 0.02%; for T48 h - %/control (without VEGF) T0 / Percentage of inhibition 48 h (proliferation induced by VEGF): 48 hours; for stimulation of the growth of endothelial cells in relation to control cells: VEGF, p<0.01; for Percentage of inhibition 24 h (proliferation induced by VEGF) / Percentage of inhibition 48 h (proliferation induced by VEGF): alone or in combination
Procedure: Normal human dermal microvascular endothelial cells were incubated for 24 or 48 hours in the absence (control) or in the presence of the arabinogalactan (ARG)/lupin peptides (LUP) active agents at concentrations of 0.2%/0.02% alone or in combination and in the presence of vascular endothelial growth factor (VEGF), the reference activator. At the end of incubation, the viability of the cells was evaluated by a spectrophotometric method: P-nitrophenyl phosphate (PNPP) is transformed into p-nitrophenol by phosphatases of viable cells and the absorbance at 405 nm of p-nitrophenol is directly proportional to the number of viable cells.
The results are expressed as the percentage of the “PNPP” signal of the control without VEGF at TO (mean±standard deviation).
The statistical significance of the differences between the “VEGF stimulated cells” and “VEGF+active agents” conditions was evaluated by a single-factor analysis of variance followed by a Holm-Sidak test.
The percentage of inhibition of proliferation is calculated according to the following equation: [(active treatment)−(VEGF stimulated)/(control without VEGF)−(VEGF stim)]*100 Results

VEGF = assay: Gene expression of VEGF by keratinocytes (real-time PCR); format: cell-based, human; conditions: NHEK; for Percentage of inhibition (VEGF expression): versus control cells
Procedure: Normal human epidermal keratinocytes (NHEK) were incubated in the presence of the complex of arabinogalactan (ARG)/lupin peptides (LUP) active agents at concentrations of 0.2%/0.02% alone or in combination.
At the end of the treatment, the culture supernatants were removed and total RNA was extracted, analyzed and assayed. The neo-synthesized cDNA relating to the genes of interest (VEGF, FGF2, HIF1α, THBS1) or to the reference genes were amplified selectively by iQ5 real-time PCR (Biorad) using SybrGreen technology.
as §1
The significance of the results was verified for the ΔCt values by a single-factor analysis of variance followed by a Dunnett's test.
The percentage of inhibition is calculated for VEGF, FGF2 and HIF1α: [(RQ(control)−RQ(active treatment))/RQ (control)]*100

[2] = NCTC 2544 keratinocytes, 24 hours preincubation then PMA 24 hours, culture supernatants
[3] = calcitriol versus control cells, p<0.001

For `C[C@@H]1C[C@H]2[C@@H]3CCC4=CC(=O)C=C[C@]4(C)[C@@]3(F)[C@@H](O)C[C@]2(C)[C@@]1(O)C(=O)CO` [Dexamethasone, dexamethasone], the inhibition at 0.1 µM (interleukin-8 (IL8); Homo sapiens, NCTC-2544, versus PMA stimulated control, NCTC 2544, read-out: percentage of inhibition of IL8 release induced by PMA) was 81%, the “IL8” value (interleukin-8 (IL8); [2]) was 5.967 ± 0.203 ng/mL and the “percentage of inhibition of IL8 release induced by PMA” value (interleukin-8 (IL8); versus PMA stimulated control, NCTC 2544) was 80.5%.

`CCCCCCCCCCCCCC(=O)O[C@@H]1[C@@H](C)[C@@]2(O)[C@@H](C=C(CO)C[C@]3(O)C(=O)C(C)=C[C@@H]23)[C@@H]2C(C)(C)[C@]12OC(C)=O` [PMA] was tested, and the “ΔΔCt (MMP9)” value (MMP9; PMA stimulated) was 6.55, the “MMP9 expression (relative quantity)” value (MMP9; PMA stimulated, control cells = 1) was 93.70 $$$ and the “Mean ΔCt (CtMMP9 − CtGAPDH)” value (MMP9; preincubated 24 hours, then PMA, ARG 0.2% + LUP 0.02%) was 2.32. For the same compound, the “IL8 (ng/ml)” value (interleukin-8 (IL8); [2]) was 30.60 ± 1.888 $$$ ng/ml.

In the case of `C=C1/C(=C\C=C2/CCC[C@]3(C)[C@@H]([C@H](C)CCCC(C)(C)O)CC[C@@H]23)C[C@@H](O)C[C@@H]1O` [calcitriol], the “Mean ΔCt (CtKLK5 − CtGAPDH)” value (kallikrein-5 (KLK5); NHEK, 24 hours, with calcitriol, ARG 0.2% + LUP 0.02%) was 2.46, the “KLK5 expression (relative quantity)” value (kallikrein-5 (KLK5); NHEK, 24 hours, with calcitriol, control cells = 1.00) was 2.49 $$$ and the “ΔΔCt (KLK5)” value (kallikrein-5 (KLK5); NHEK, 24 hours, with calcitriol, ΔCtcontrol−ΔCttreated) was 1.32. For the same compound, the “stimulation of the gene expression of kallikrein-5 by keratinocytes” value (kallikrein-5 (KLK5); [3]) was 149%, the “Mean ΔCt (CtLL37 − CtGAPDH)” value (cathelicidin (LL37)) was 11.02 and the “LL37 expression (relative quantity)” value (cathelicidin (LL37)) was 9.12 $$$. For the same compound, the “ΔΔCt (LL37)” value (cathelicidin (LL37)) was 3.19 and the “stimulation of the gene expression of LL37 by keratinocytes” value (cathelicidin (LL37); [3]) was 812%.

For VEGF, the “T24 h - %/control (without VEGF) T0” value [1] was 213.2 ± 10.8%, the “T48 h - %/control (without VEGF) T0” value [1] was 262.6 ± 5^ % and the “stimulation of the growth of endothelial cells in relation to control cells” value ([1]; after 24 hours of incubation) was 78.9%. The “stimulation of the growth of endothelial cells in relation to control cells” value ([1]; after 48 hours of incubation) was 159%.

arabinogalactan [ARG] was tested, and the “T24 h - %/control (without VEGF) T0” value [1] was 204.7 ± 7.1%, the “Percentage of inhibition 24 h (proliferation induced by VEGF)” value [1] was 17.03% and the “Percentage of inhibition 24 h (proliferation induced by VEGF)” value ([1]; listed as arabinogalactan) was 17%. The “T48 h - %/control (without VEGF) T0” value [1] was 252.9 ± 6^ %, the “Percentage of inhibition 48 h (proliferation induced by VEGF)” value [1] was 9.71% and the “Percentage of inhibition 48 h (proliferation induced by VEGF)” value ([1]; listed as arabinogalactan) was about 10%. The “Mean ΔCt (CtLL37 − CtGAPDH)” value (cathelicidin (LL37)) was 11.31, the “LL37 expression (relative quantity)” value (cathelicidin (LL37)) was 7.46 * and the “ΔΔCt (LL37)” value (cathelicidin (LL37)) was 2.9. For the same compound, the “Percentage of inhibition (LL37 expression)” value (cathelicidin (LL37)) was 18.2%, the “Percentage of inhibition (LL37 expression)” value (cathelicidin (LL37); listed as Arabinogalactan) was 18% and the “Mean ΔCt (CtVEGF − CtGAPDH)” value (VEGF; ARG 0.2%, LUP 0.02%, alone or in combination) was 9.03. For the same compound, the “VEGF expression (relative quantity)” value (VEGF; control cells = 1) was 0.707 **, the “ΔΔCt (VEGF)” value (VEGF; ΔCtcontrol−ΔCttreated) was −0.5 and the “Percentage of inhibition (VEGF expression)” value (VEGF; ARG 0.2%, LUP 0.02%) was 29.3%. For the same compound, the “Percentage of inhibition (VEGF expression)” value (VEGF; ARG 0.2%, LUP 0.02%, listed as Arabinogalactan) was 29%.
